Columns and labels:
[1] = Stinging test (VAS) on tape-stripped forearm skin of subjects; assay type: in vivo, human; details: for Subjective Stinging Score, mean: 100 mm VAS, n=10, abraded skin
Description: Topical formulations, particularly those that are to be applied to diseased or damaged skin (e.g. cracks, fissures, open blisters, rash, and the like) may produce the sensory perception of stinging, a distinct discomfort to the user. A stinging test can be used to assess whether the novel topical formulations described herein produce a sensory perception of stinging.
For example, the study is designed to assess the sting potential of four topical formulations using a modification of a lactic acid sting assessment method. The test formulations are evaluated on skin that has been partially damaged (e.g. partial removal of the stratum corneum by tape stripping) to simulate diseased skin. Both a positive control (70% isopropyl alcohol) and a negative control (water) can be included to ascertain each subject's ability to sense the stinging sensation.
After providing informed consent, each subject receives a single dose exposure of 5 μL/cm^2 (40 μL/site) of a test formulation to an 8 cm^2 (2 cm×4 cm) surface abraded test site on their forearms (3 sites/arm), for a 10 minute duration. Skin abrasion is produced by repetitive tape stripping until a TEWL (Trans-Epidermal Water-Loss) measurement of 30 g/m^2/hr, or greater, has been achieved (e.g. tape stripping will be performed 15 times followed by a TEWL measurement. If the TEWL is <30 g/m^2/hr, 10 more strips will be collected, if TEWL is still <30 g/m^2/hr, 10 more tape strip will be collected).
Subjects rated stinging, pain and discomfort at the site using a 100 mm visual analogue scale (VAS), one for each individual sensation, immediately after dosing and at 2, 5 and 10 minutes following topical application. Subjects provided a description of the sensations experienced following application of each test article. The subjects responses, measured in mm, were tabulated for each post-dosing assessment for each test sited.

[2] = Crystallization of lidocaine in formulation with time; assay type: physicochemical; details: lidocaine base formulation; water concentration greater than about 40% w/w
Description: In this experiment, the water concentration in L504 was maximized in order to develop a more benign vehicle with reduced chance of irritation.

Compound | Subjective Stinging Score, mean ([1]; 2 Minute after application) [mm] | Subjective Stinging Score, mean ([1]; 5 Minute after application) [mm] | Subjective Stinging Score, mean ([1]; 10 Minute after application) [mm] | Subjective Stinging Score, mean ([1]; Immediate after application) [mm] | Subjective Stinging Score, mean ([1]; Maximum score) [mm] | stinging response in the stinging test (in words) ([1]; comparison with water application or LidHCL115a base formulation) | crystallization of lidocaine in solution with time [2]
CC(C)O [70% Isopropanol, Isopropyl Alcohol] | 3.31 | 1.87 | 1.00 | 10.84 | 12.13 | immediate stinging response is severe, followed by a rapid fall in pain | 
CCN(CC)CC(=O)Nc1c(C)cccc1C [lidocaine, Lidocaine base] |  |  |  |  |  |  | tended to crystallized with time
